Experimental findings from ChEMBL document CHEMBL4017443, “(-)-UB006: A new fatty acid synthase inhibitor and cytotoxic agent without anorexic side effects” (Eur J Med Chem, 2017) are described below.

Broadly, the IC50 is the concentration that inhibits the measured activity by half. As a reminder, the inhibition is how much of the control response was suppressed.

Series [1] relates to Fibroblast. As to the kind of experiment: Antiproliferative activity against fibroblasts (unknown origin) after 72 hrs by MTT assay. The class given is cell-based.
Series [2] concerns SK-BR-3. As to the kind of experiment: Antiproliferative activity against human SKBR3 cells after 72 hrs by MTT assay. It counts as functional, cell-based. The settings on record: SK-BR-3, 72 h. (Tetrazolium dyes change colour on reduction, which living cells bring about.)
Series [3] has as its system MCF7. Put plainly: cells. The settings on record: Homo sapiens, MCF7, 72 h.
The subject of series [4] is PC-3. Put plainly: Antiproliferative activity against human PC3 cells after 72 hrs by MTT assay. It counts as functional, cell-based. The settings on record: PC-3, 72 h.
Series [5] deals with OVCAR-3. As to the kind of experiment: Antiproliferative activity against human OVCAR3 cells after 72 hrs by MTT assay. It counts as functional, cell-based. Particulars: OVCAR-3, 72 h.
The subject of series [6] is MIA PaCa-2. Put plainly: Antiproliferative activity against human MIAPaCa2 cells after 72 hrs by MTT assay. The class given is functional, cell-based. Particulars: MIA PaCa-2, 72 h.
Series [7] concerns the target Fatty acid synthase (Rattus norvegicus, UniProt P12785). Put plainly: Inhibition of fatty acid synthase in rat cytosolic hepatic extracts using acetyl CoA and malonyl CoA as substrate preincubated for 30 mins followed by acetyl CoA addition and subsequent incubation for 3 mins prior to malonyl CoA addition measured after 10 mins in presence of NADPH by spectrophotometric method.

For series [8], the system named is HCT-116. As to the kind of experiment: Antiproliferative activity against human HCT116 cells after 72 hrs by MTT assay. It counts as functional, cell-based. Particulars: HCT-116, 72 h.
Series [9] deals with MDA-MB-231. Put plainly: Antiproliferative activity against human MDA-MB-231 cells after 72 hrs by MTT assay. It counts as functional, cell-based. Particulars: MDA-MB-231, 72 h.
Series [10] has as its target Ribosomal protein S6 kinase beta-1 (Homo sapiens) (UniProt P23443). As to the kind of experiment: Inhibition of S6K1 phosphorylation at T389 in human OVCAR3 cells at 29.74 uM after 24 hrs by Western blot analysis. The class given is cell-based. A general note: Immunoblotting shows a protein as a band on a membrane.
Series [11] addresses T1, Carnitine O-palmitoyltransferase 1, liver isoform (Rattus norvegicus, UniProt P32198).
T1 sequence (P32198 whole entry): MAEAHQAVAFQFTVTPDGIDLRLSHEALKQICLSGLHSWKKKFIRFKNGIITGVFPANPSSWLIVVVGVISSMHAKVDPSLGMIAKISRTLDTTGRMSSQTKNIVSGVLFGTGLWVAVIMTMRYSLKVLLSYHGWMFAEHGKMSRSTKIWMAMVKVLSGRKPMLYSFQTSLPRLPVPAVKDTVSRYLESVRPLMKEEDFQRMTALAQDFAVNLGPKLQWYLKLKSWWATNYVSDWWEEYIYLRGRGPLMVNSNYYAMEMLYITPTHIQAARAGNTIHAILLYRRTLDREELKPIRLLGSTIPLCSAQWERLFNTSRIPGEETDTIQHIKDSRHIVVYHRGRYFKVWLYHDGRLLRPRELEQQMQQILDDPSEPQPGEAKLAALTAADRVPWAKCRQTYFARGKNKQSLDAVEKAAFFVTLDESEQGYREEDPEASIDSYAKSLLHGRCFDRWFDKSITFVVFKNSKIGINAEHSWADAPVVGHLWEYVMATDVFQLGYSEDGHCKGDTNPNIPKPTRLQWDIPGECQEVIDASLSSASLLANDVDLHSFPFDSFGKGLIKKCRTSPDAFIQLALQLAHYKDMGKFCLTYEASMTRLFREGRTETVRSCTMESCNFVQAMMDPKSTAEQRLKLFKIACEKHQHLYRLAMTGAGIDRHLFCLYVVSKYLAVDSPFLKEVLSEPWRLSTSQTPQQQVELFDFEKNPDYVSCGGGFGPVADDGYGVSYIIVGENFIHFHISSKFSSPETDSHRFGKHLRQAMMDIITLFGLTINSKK
Put plainly: Inhibition of rat wild-type CPT1A expressed in yeast mitochondrial extracts using L-[methyl-3H]carnitine and palmitoyl-CoA as substrates preincubated for 1 min followed by substrate addition measured for 5 mins by radiometric method.

For series [12], the system named is Rattus norvegicus. Put plainly: Toxicity in icv dosed Sprague-Dawley rats assessed as decrease in body weight. It counts as organism-based. The settings on record: in vivo, icv_or_intrathecal.
For series [13], the system named is Mus musculus. As to the kind of experiment: Toxicity in ip dosed C57/BL6J mouse assessed as decrease in body weight. It counts as organism-based. The settings on record: in vivo.
Series [14] deals with Rattus norvegicus. Put plainly: Toxicity in Sprague-Dawley rats assessed as decrease in body weight at 33 mM, icv measured every day for 3 days. The settings on record: in vivo, icv_or_intrathecal, 72 h, 33000 µM.
The target in series [15] is Fatty acid synthase (Homo sapiens) (UniProt P49327). The settings on record: 8 ug/ml.
Sequence of Fatty acid synthase (Homo sapiens) (P49327 whole entry, looked up): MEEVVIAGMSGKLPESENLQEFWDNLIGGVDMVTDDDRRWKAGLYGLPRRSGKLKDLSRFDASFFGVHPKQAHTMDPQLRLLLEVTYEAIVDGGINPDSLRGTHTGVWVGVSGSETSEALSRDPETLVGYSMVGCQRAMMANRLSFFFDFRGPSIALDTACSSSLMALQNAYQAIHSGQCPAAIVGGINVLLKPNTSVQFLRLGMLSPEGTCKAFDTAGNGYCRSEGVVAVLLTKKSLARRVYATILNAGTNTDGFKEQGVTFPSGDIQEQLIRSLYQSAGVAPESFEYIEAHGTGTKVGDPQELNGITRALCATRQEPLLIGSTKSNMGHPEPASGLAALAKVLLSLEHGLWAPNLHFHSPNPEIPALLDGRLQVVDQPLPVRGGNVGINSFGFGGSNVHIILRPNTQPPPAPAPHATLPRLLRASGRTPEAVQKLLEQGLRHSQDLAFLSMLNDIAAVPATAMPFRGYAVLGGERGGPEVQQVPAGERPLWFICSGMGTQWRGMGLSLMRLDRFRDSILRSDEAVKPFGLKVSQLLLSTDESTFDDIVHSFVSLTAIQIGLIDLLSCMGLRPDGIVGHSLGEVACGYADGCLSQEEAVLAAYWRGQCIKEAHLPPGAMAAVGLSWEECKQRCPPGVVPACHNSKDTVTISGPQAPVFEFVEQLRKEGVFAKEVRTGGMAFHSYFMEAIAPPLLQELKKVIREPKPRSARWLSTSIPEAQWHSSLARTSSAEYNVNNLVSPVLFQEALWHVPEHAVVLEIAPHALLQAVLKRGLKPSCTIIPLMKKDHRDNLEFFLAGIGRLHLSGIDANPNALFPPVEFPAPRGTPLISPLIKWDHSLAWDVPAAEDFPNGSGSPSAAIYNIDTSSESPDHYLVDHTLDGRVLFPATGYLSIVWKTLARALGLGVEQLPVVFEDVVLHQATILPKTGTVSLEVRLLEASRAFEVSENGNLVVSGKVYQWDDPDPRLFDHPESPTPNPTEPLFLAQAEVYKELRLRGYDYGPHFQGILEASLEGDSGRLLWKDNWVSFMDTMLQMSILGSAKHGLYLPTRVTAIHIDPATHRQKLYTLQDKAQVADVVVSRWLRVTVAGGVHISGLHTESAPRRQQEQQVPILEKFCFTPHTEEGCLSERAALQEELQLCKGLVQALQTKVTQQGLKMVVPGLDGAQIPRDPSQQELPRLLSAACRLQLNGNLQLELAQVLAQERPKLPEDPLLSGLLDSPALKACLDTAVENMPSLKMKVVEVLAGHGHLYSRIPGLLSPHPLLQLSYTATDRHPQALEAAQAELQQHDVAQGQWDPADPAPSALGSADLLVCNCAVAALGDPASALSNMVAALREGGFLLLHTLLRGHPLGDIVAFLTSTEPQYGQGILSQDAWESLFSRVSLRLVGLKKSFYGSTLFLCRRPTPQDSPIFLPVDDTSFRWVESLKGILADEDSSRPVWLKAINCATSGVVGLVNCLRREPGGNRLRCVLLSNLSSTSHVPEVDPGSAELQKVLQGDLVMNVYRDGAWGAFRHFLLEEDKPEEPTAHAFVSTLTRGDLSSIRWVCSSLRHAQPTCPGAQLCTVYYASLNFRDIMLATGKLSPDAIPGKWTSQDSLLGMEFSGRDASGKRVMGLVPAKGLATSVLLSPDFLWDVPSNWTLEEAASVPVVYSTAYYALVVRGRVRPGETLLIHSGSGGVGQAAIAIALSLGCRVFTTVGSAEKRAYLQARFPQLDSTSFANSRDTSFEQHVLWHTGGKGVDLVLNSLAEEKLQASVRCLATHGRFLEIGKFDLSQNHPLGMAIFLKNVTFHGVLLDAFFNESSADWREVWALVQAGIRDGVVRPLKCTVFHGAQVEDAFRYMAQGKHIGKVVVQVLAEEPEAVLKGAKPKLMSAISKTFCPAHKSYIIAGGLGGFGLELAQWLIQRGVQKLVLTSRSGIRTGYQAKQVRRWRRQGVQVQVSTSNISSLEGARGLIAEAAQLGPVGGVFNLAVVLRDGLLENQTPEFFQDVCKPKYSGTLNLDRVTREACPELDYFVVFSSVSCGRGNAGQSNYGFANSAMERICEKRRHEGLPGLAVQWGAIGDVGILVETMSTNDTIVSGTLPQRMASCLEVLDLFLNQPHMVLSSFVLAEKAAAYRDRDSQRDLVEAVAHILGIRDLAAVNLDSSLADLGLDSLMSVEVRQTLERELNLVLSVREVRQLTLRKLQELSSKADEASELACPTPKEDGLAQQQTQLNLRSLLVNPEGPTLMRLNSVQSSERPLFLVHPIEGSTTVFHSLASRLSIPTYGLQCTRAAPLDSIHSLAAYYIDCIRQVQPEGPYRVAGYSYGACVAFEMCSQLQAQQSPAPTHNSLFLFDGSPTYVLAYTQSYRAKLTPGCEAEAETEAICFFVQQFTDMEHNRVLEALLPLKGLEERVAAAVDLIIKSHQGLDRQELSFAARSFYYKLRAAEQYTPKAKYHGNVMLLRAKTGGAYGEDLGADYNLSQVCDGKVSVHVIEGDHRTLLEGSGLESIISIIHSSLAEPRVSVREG
Description: Inhibition of fatty acid synthase in human OVCAR3 cells assessed as reduction in fatty acid synthesis at 8 ug/ml pretreated for 2 hrs followed by [U14C]-acetate addition measured after 2 hrs by scintillation counting method relative to control
Series [16] has as its system Mus musculus. As to the kind of experiment: Toxicity in C57/BL6J mouse assessed as decrease in body weight at 15 mg/kg, ip administered once daily for 3 days measured after 2 days. It counts as organism-based. The settings on record: in vivo, 48 h.
Series [17] deals with Rattus norvegicus. As to the kind of experiment: Toxicity in Sprague-Dawley rats assessed as decrease in food intake at 30 mM, icv measured after 1 to 22 hrs. The settings on record: in vivo, icv_or_intrathecal, 30000 µM.
In series [18] the test system is Mus musculus. As to the kind of experiment: Toxicity in C57/BL6J mouse assessed as decrease in food intake at 15 mg/kg, ip administered once daily for 3 days measured after 2 days. It counts as organism-based. The settings on record: in vivo, 48 h.

The source made the active and inactive calls. No cut-off for these calls is given here.

Sequence of Ribosomal protein S6 kinase beta-1 (Homo sapiens) (P23443 whole entry, looked up, canonical isoform): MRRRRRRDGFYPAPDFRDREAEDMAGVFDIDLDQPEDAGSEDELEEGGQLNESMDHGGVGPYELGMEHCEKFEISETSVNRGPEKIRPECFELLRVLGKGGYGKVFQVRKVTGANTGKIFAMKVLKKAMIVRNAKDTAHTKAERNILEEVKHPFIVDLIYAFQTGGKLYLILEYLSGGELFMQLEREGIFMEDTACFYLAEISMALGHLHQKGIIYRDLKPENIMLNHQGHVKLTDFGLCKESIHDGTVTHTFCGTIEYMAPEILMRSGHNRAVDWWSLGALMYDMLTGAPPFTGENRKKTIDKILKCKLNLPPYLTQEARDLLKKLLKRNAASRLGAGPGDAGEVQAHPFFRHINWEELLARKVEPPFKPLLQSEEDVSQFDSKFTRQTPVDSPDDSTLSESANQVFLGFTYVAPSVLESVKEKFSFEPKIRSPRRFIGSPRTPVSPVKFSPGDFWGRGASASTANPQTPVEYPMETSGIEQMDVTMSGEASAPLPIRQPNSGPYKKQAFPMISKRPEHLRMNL

As to `C=C1C(=O)O[C@@H](CCCCCCCC)[C@@H]1C(=O)O`, the IC50 in series [1] was more than 117 µM; in [2] it was 38.2 µM; in [3], 46.4 µM; in series [4], 34.3 µM; in [5], 17.9 µM; in series [6], 25.3 µM. The values for the half-inhibitory concentration (IC50) in series [7], in series [8] and in series [9] were 440 to 498 µM, 74.8 µM and 57.7 µM, respectively.
Turning to `C=C1C(=O)O[C@@H](CCCCCCCC)[C@@H]1CO`, in series [10], the inhibition result is “Active”.
Molecule `CCCCCCCCC1OC(=O)C(CSCCNC(=O)CCNC(=O)[C@H](O)C(C)(C)COP(=O)(O)OP(=O)(O)OC[C@H]2O[C@@H](n3cnc4c(N)ncnc43)[C@H](O)[C@@H]2OP(=O)(O)O)C1C(=O)O` (mixture of isomers) came in with an IC50 in series [11] of 1.1 µM.
Consider `CCCCCCCCC1OC(=O)C(CSCCNC(=O)CCNC(=O)[C@H](O)C(C)(C)COP(=O)(O)OP(=O)(O)OC[C@H]2O[C@@H](n3cnc4c(N)ncnc43)[C@H](O)[C@@H]2OP(=O)(O)O)C1CO` (mixture of isomers), for which the Activity entry in series [12] and in [13] was “Non-Toxic” in each case. Besides, it took 15.7 µM to reach half-maximal inhibition in series [11] (IC50).
Take `C=C1C(=O)OC(CCCCCCCC)C1C(=O)O` (racemic): the IC50 in [1] came to 63.2 µM; in series [2], 19.8 µM; in series [3], 27.3 µM; in series [4] it was 26.8 µM; in [5], 21.9 µM; in series [6] it was 21.8 µM. Moreover, the IC50 in [8] turned out to be 46.4 µM; in [9], 43.8 µM. In addition, the Activity entry in series [14], in [16], in series [17] and in series [18] was “Toxic” in each case. For the same molecule, the inhibition in series [15] amounted to 38%.
